The values that follow come from patent US8357710B2, “Bicyclic angiotensin II agonists” (Vicore Pharma AB, priority 2005, dated 2013).

For experiment [1], the system named is duodenal mucosal alkaline secretion. The experiment in a line: Test C: duodenal mucosal alkaline secretion assay in barbiturate-anaesthetised rats. The class given is in vivo, rat. The settings on record: co-administration with title compounds of the Examples. The text has this: Duodenal Mucosal Alkaline Secretion Assay
Compounds were exposed to the duodenal mucosa in barbiturate-anaesthetised rats prepared for in situ titration of duodenal mucosal alkaline secretion, according to the methodology described by Flemström et al in Am. J. Physiol. (1982) 243, G348.

In experiment [2] the target is T1, AT2 receptor (Sus scrofa, UniProt A0A4X1W622).
T1 sequence (A0A4X1W622 1-362): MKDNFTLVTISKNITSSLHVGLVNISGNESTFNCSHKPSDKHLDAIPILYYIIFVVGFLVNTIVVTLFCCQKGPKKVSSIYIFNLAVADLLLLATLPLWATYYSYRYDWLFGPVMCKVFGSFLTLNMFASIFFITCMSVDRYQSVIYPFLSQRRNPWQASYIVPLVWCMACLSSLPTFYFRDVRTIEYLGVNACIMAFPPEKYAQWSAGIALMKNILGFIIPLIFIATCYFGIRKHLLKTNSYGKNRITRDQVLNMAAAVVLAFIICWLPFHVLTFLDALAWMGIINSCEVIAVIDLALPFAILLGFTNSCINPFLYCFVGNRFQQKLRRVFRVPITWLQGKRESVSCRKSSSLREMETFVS
The settings on record: read-out: dissociation constant (Kd), AT2 receptor; Scatchard analysis, porcine myometrial membranes, [L]=0.057 nM.
Experimental: Myometrial membranes were prepared from porcine uteri according to the method by Nielsen et al (Clin. Exp. Pharm. Phys. (1997) 24, 309). […] Samples were incubated at 25° C. for 1 h, and binding was terminated by filtration through Whatman GF/B glass-fiber filter sheets using a Brandel cell harvester. The filters were washed with 3×3 mL of Tris-HCl (pH 7.4) and transferred to tubes. The radioactivity was measured using a gamma counter. […] The binding data were best fitted with a one-site fit. All experiments were performed at least in triplicate.

Consider `Cc1cc(Cn2cnc3c2C[C@@H](C(=O)O)N(C(=O)C(c2ccccc2)c2ccccc2)C3)ccc1N(C)C` [PD123319], for which the “effect of co-administration on the stimulation of mucosal alkalisation by the title compounds” value in experiment [1] is “blocked”. For “Asp^1-Arg^2-Val^3-Tyr^4-Ile^5-His^6-Pro^7-Phe^8 [Ang II]”, the Kd (commonly a measure of binding affinity in units of concentration) in experiment [2] amounted to 0.7 ± 0.1 nM.
